Activity calls are given as the source filed them. The rule behind the calls is not given here.
Test system: HCC827
Experiment: Induction of apoptosis in human HCC827 cells assessed as necrotic cells at 0.1 uM incubated for 32 hrs by annexin V-FITC and PI staining based flow cytometry analysis (reference value: 6.68 %)
Format: functional
Conditions: not given

Compound	Activity
O=C1CCC(N2Cc3c(NC(=O)CCCCCCCN4CCN(c5ccc(Nc6cc7c(N8CCC(CO)CC8)nc(Nc8ccc(F)cc8)nc7cn6)nc5)CC4)cccc3C2=O)C(=O)N1 (stereo not given)	8.21%

Test system: HCC827
Experiment: Protac activity at E3 ubiquitin ligase/EGFR in human HCC827 cells assessed as increase in degradation of EGFR at 0.1 uM pretreated with (1-(6-(5-(4-(dimethylamino)piperidin-1-yl)pyridin-2-ylamino)-2-(4-fluorophenylamino)pyrido[3,4-d]pyrimidin-4-yl)piperidin-4-yl)methanol and incubated for 6 hrs followed by compound addition and measured after 32 hrs by Western blot analysis
Format: cell-based
Conditions: not given

Compound	Activity
O=C1CCC(N2Cc3c(NC(=O)CCCCCCCN4CCN(c5ccc(Nc6cc7c(N8CCC(CO)CC8)nc(Nc8ccc(F)cc8)nc7cn6)nc5)CC4)cccc3C2=O)C(=O)N1 (stereo not given)	inactive

Test system: HCC827
Experiment: Induction of apoptosis in human HCC827 cells assessed as early apoptotic cells at 1 uM incubated for 32 hrs by annexin V-FITC and PI staining based flow cytometry analysis (reference value: 2.72%)
Format: functional
Conditions: not given

Compound	Activity
O=C1CCC(N2Cc3c(NC(=O)CCCCCCCN4CCN(c5ccc(Nc6cc7c(N8CCC(CO)CC8)nc(Nc8ccc(F)cc8)nc7cn6)nc5)CC4)cccc3C2=O)C(=O)N1 (stereo not given)	4.16%

Test system: HCC827
Experiment: Induction of cell cycle arrest in human HCC827 cells assessed as accumulation in G1 phase at 1 uM incubated for 32 hrs by PI staining based flow cytometry analysis (reference value: 50.48 %)
Format: functional
Conditions: not given

Compound	Activity
O=C1CCC(N2Cc3c(NC(=O)CCCCCCCN4CCN(c5ccc(Nc6cc7c(N8CCC(CO)CC8)nc(Nc8ccc(F)cc8)nc7cn6)nc5)CC4)cccc3C2=O)C(=O)N1 (stereo not given)	81.89%

Test system: HCC827
Experiment: Induction of apoptosis in human HCC827 cells assessed as early apoptotic cells at 0.1 uM incubated for 32 hrs by annexin V-FITC and PI staining based flow cytometry analysis (reference value: 2.31 %)
Format: functional
Conditions: not given

Compound	Activity
O=C1CCC(N2Cc3c(NC(=O)CCCCCCCN4CCN(c5ccc(Nc6cc7c(N8CCC(CO)CC8)nc(Nc8ccc(F)cc8)nc7cn6)nc5)CC4)cccc3C2=O)C(=O)N1 (stereo not given)	5.93%

Test system: HCC827
Experiment: Protac activity at E3 ubiquitin ligase/EGFR in human HCC827 cells assessed as increase in degradation of EGFR at 1 to 10 uM pretreated with MG-132 for 6 hrs followed by compound addition and measured after 30 hrs by Western blot analysis
Format: cell-based
Conditions: dose 1-10 µM

Compound	Activity
O=C1CCC(N2Cc3c(NC(=O)CCCCCCCN4CCN(c5ccc(Nc6cc7c(N8CCC(CO)CC8)nc(Nc8ccc(F)cc8)nc7cn6)nc5)CC4)cccc3C2=O)C(=O)N1 (stereo not given)	inactive

Test system: A549
Experiment: Protac activity at E3 ubiquitin ligase/EGFR in human A549 cells harboring wild type EGFR assessed as increase in degradation of EGFR at 0.1 to 10 uM incubated for 48 hrs by Western blot analysis
Format: cell-based
Conditions: dose 0.1-10 µM

Compound	Activity
O=C1CCC(N2Cc3c(NC(=O)CCCCCCCN4CCN(c5ccc(Nc6cc7c(N8CCC(CO)CC8)nc(Nc8ccc(F)cc8)nc7cn6)nc5)CC4)cccc3C2=O)C(=O)N1 (stereo not given)	Active

Test system: HCC827
Experiment: Induction of apoptosis in human HCC827 cells assessed as viable cells at 0.1 uM incubated for 32 hrs by annexin V-FITC and PI staining based flow cytometry analysis (reference value: 76.79 %)
Format: functional
Conditions: read-out: Activity

Compound	viability at 0.1 µM
O=C1CCC(N2Cc3c(NC(=O)CCCCCCCN4CCN(c5ccc(Nc6cc7c(N8CCC(CO)CC8)nc(Nc8ccc(F)cc8)nc7cn6)nc5)CC4)cccc3C2=O)C(=O)N1 (stereo not given)	59.5%

Test system: HCC827
Experiment: Induction of cell cycle arrest in human HCC827 cells assessed as accumulation in S phase at 0.1 uM incubated for 32 hrs by PI staining based flow cytometry analysis (reference value: 41.26 %)
Format: functional
Conditions: not given

Compound	Activity
O=C1CCC(N2Cc3c(NC(=O)CCCCCCCN4CCN(c5ccc(Nc6cc7c(N8CCC(CO)CC8)nc(Nc8ccc(F)cc8)nc7cn6)nc5)CC4)cccc3C2=O)C(=O)N1 (stereo not given)	10.79%

Test system: HCC827
Experiment: Antiproliferative activity against human HCC827 cells harboring EGFRDel19 mutant assessed as reduction in cell viability incubated for 72 hrs by MTT assay
Format: functional, cell-based
Conditions: HCC827, 72 h

Compound	IC50
O=C1CCC(N2Cc3c(NC(=O)CCCCCCCN4CCN(c5ccc(Nc6cc7c(N8CCC(CO)CC8)nc(Nc8ccc(F)cc8)nc7cn6)nc5)CC4)cccc3C2=O)C(=O)N1 (stereo not given)	180 nM

Test system: HCC827
Experiment: (§1) Protac activity at E3 ubiquitin ligase/EGFR in human HCC827 cells assessed as increase in degradation of EGFR incubated for 48 hrs by Western blot analysis
Format: cell-based
Conditions: not given

Compound	Activity
O=C1CCC(N2Cc3c(NC(=O)CCCCCCCN4CCN(c5ccc(Nc6cc7c(N8CCC(CO)CC8)nc(Nc8ccc(F)cc8)nc7cn6)nc5)CC4)cccc3C2=O)C(=O)N1 (stereo not given)	Dose-dependent effect

Test system: not listed separately
Experiment: as §1
Format: cell-based
Conditions: HCC827, 48 h

Compound	DC50
O=C1CCC(N2Cc3c(NC(=O)CCCCCCCN4CCN(c5ccc(Nc6cc7c(N8CCC(CO)CC8)nc(Nc8ccc(F)cc8)nc7cn6)nc5)CC4)cccc3C2=O)C(=O)N1 (stereo not given)	45.2 nM

Test system: HCC827
Experiment: Induction of apoptosis in human HCC827 cells assessed as late apoptotic cells at 1 uM incubated for 32 hrs by annexin V-FITC and PI staining based flow cytometry analysis (reference value: 18.02%)
Format: functional
Conditions: not given

Compound	Activity
O=C1CCC(N2Cc3c(NC(=O)CCCCCCCN4CCN(c5ccc(Nc6cc7c(N8CCC(CO)CC8)nc(Nc8ccc(F)cc8)nc7cn6)nc5)CC4)cccc3C2=O)C(=O)N1 (stereo not given)	49.56%

Test system: HCC827
Experiment: Protac activity at E3 ubiquitin ligase/EGFR in human HCC827 cells assessed as increase in degradation of EGFR at 1 to 10 uM pretreated with MLN-4924 for 6 hrs followed by compound addition and measured after 30 hrs by Western blot analysis
Format: cell-based
Conditions: dose 1-10 µM

Compound	Activity
O=C1CCC(N2Cc3c(NC(=O)CCCCCCCN4CCN(c5ccc(Nc6cc7c(N8CCC(CO)CC8)nc(Nc8ccc(F)cc8)nc7cn6)nc5)CC4)cccc3C2=O)C(=O)N1 (stereo not given)	Active

Test system: A-431
Experiment: Antiproliferative activity against human A-431 cells harboring EGFR assessed as reduction in cell viability incubated for 72 hrs by MTT assay
Format: functional, cell-based
Conditions: A-431, 72 h

Compound	IC50
O=C1CCC(N2Cc3c(NC(=O)CCCCCCCN4CCN(c5ccc(Nc6cc7c(N8CCC(CO)CC8)nc(Nc8ccc(F)cc8)nc7cn6)nc5)CC4)cccc3C2=O)C(=O)N1 (stereo not given)	> 10000 nM

Source: ChEMBL document CHEMBL4680163, “Discovery of potent epidermal growth factor receptor (EGFR) degraders by proteolysis targeting chimera (PROTAC)” (Eur J Med Chem, 2020)
